One data set concerns alt-NHEJ. The data set can be described thus: EJ-DR 384-well imaging assay, alt-NHEJ (RFP) readout. The conditions noted are these: for Selectivity Index (HR IC50/alt-NHEJ IC50) / selectivity index SI (CT IC50/alt-NHEJ IC50): ratio; for Selectivity Index (HR IC50/alt-NHEJ IC50): Supplementary Table 2.
The target of the next data set is T1, CYP2D6 (Homo sapiens, UniProt P10635).
T1 construct: tissue Eurofins Scientific; host or cells: human liver microsomes
The data set can be described thus: Cytochrome P450 inhibition assay in human liver microsomes, CYP2D6. The conditions noted are these: human liver microsomes; for selectivity ratio: human, read-out: SICYP 2D6 (selectivity index of CYP, CYP2D6 IC50 to alt-NHEJ IC50), called fold decrease in CYP2D6 inhibition. The format is in vitro ADME. As for the experimental part:
(§1) CYP inhibition assays were performed by Eurofins Scientific. Test compounds were incubated with human liver microsomes, followed by compound detection using high performance liquid chromatography with tandem mass spectrometry (HPLC-MS/MS).

The next data set deals with T2, CYP3A4 (Homo sapiens, UniProt P08684).
T2 construct: tissue Eurofins Scientific; host or cells: human liver microsomes
The data set can be described thus: Cytochrome P450 inhibition assay in human liver microsomes, CYP3A4. Type of data set: in vitro ADME. The conditions noted are these: for IC50 / selectivity ratio: human liver microsomes; for selectivity ratio: human, read-out: SICYP 3A4 (selectivity index of CYP, CYP3A4 IC50 to alt-NHEJ IC50), called fold decrease in CYP3A4 inhibition. As for the experimental part:
as §1
A general note: Microsomes from liver hold many membrane-bound enzymes, among them those of drug oxidation.

In another data set the test system is EJ-DR U2OS cells. The data set can be described thus: Cytotoxicity in the absence of DSB ligands (CT), Hoechst cell count. The format is cell-based, human. Particulars: Supplementary Table 2, mean ± SEM of four technical replicates.
For another data set, the system named is HR. The data set can be described thus: EJ-DR 384-well imaging assay, HR (GFP) readout. Particulars: read-out: HR IC50.
A short description of data set [1]: Cytotoxicity in the absence of DSB ligands (CT), Hoechst cell count. The conditions noted are these: human, EJ-DR U2OS cells, no DSB ligands. Type of data set: cell-based, human.
Protocol: (§4) In addition to quantifying HR and alt-NHEJ activities, cytotoxicity in the absence of DSB ligands (CT) was also evaluated by quantifying the number of Hoeschst 33342-stained cells, allowing us to better understand the margin between on-target and presumable off-target, DNA repair-independent effects. IC50 values of HR inhibition, alt-NHEJ inhibition, and CT were used to calculate the “selectivity index” (SI) (defined as the ratio of CT IC50/alt-NHEJ IC50) and alt-NHEJ selectivity defined as HR IC50/alt-NHEJ IC50. […] (Figure 1E).
(§5) The EJ-DR cell line was cultured in high glucose Dulbecco’s modified Eagle’s medium (DMEM; Thermo Fisher Scientific) with L-glutamine containing 10% tetracycline-free (tet-free) fetal bovine serum (FBS; Takara Bio Inc. and Atlanta Biologics) and 1% Penicillin Streptomycin (Thermo Fisher Scientific). […] All cells were maintained at 37°C with 5% CO2.
(§6) The EJ-DR cells were plated in 384-well imaging plates at 2500 cells/well. 24 hours later, the DSB ligands, Triamcinolone Acetonide (TA; Sigma-Aldrich Co., LLC) and Shield-1 (Takara Bio Inc.), responsible for inducing the DSBs, were added for a final concentration of 100 nM TA and 1 μM Shield-1. Test compounds were also added at the same time using Echo 550 Acoustic Dispenser (Labcyte). A separate plate was seeded to test for cytotoxicity of the test compounds in the absence of the DSB ligands. […] The DSB ligands were washed out 24 hours after addition. 96 hours after addition of the ligands and test compounds, the media was washed off and cells were incubated with Hoechst nuclear stain in Live Cell Imaging Solution (Thermo Fisher Scientific). Plates were rinsed and prepared for immediate live cell imaging using GE IN Cell 2200 (Cytiva Life Sciences). Images were analyzed using InCell Analyzer software (Cytiva Life Sciences). Nuclei were segmented based on the Hoechst staining, and the intensity of the GFP and RFP signals in control populations were measured and binned into histograms to determine signal intensity threshold. The GFP and RFP intensity of all wells was then analyzed, and the percent of positive cells with GFP and RFP intensity above the threshold was calculated to determine the induction of signal. The DAPI cell counts were used to determine the relative cytotoxicity of test compounds in the absence of induced DNA damage.
In the next data set the target is T3, T type Cav 3.2 (Homo sapiens, UniProt O95180).
T3 construct: host or cells: HEK293
The data set can be described thus: Calcium channel blocking study, T-type Cav3.2. Particulars: HEK293 cells stably expressing the channel. The format is cell-based.

The target of another data set is T4, L type Cav 1.2 (Homo sapiens, UniProt Q13936).
T4 construct: host or cells: CHO
The data set can be described thus: Calcium channel blocking study, L-type. The format is cell-based. Particulars: CHO cells stably expressing the channel.

Data set [2] in a line: In vivo pharmacokinetic study, brain tissue. As for the experimental part:
(§2) These measurements were used to calculate various pharmacokinetic parameters critical to bioavailability including time to reach maximum concentration (tmax), maximum concentration achieved (Cmax), and half-life (t1/2) (Figure 5C, 5D, Supplementary Table 1).
(§3) Compound concentrations were measured at these time-points using Liquid Chromatography with tandem mass spectrometry (LC-MS-MS). Pharmacokinetic studies were performed by orally dosing test compounds at 30 mg/kg dissolved in 50% PEG400 and 50% water in female athymic nude mice. Plasma and brain tissue concentration were measured using mass spectrometry (MS).

Data set [3] in a line: In vivo pharmacokinetic study, plasma. As for the experimental part: as §2, §3
In another data set the target is T5, T type Cav 3.1 (Homo sapiens, UniProt O43497).
T5 construct: host or cells: HEK293
The data set can be described thus: Calcium channel blocking study, T-type Cav3.1. Particulars: HEK293 cells stably expressing the channel. The format is cell-based.

In another data set the target is T6, T type Cav 3.3 (Homo sapiens, UniProt Q9P0X4).
T6 construct: host or cells: HEK293
The data set can be described thus: Calcium channel blocking study, T-type Cav3.3. The format is cell-based. The conditions noted are these: HEK293 cells stably expressing the channel.

For another data set, the target named is T7, Human hERG (Kv11.1) (Homo sapiens, UniProt Q12809).
T7 construct: host or cells: CHO-K1
The data set can be described thus: Automated hERG inhibition patch clamp assay. The format is cell-based. As to the method:
Automated whole cell voltage clamp hERG inhibition assays were performed in Human hERG (Kv11.1) expressed in CHO-K1 cells optimized for automated patch clamp studies by Sophion Bioscience A/S [47].
In general terms: The hERG channel carries a current that helps repolarise heart muscle cells.

The mark [4] stands for this setting: Homo sapiens, U2OS, read-out: alt-NHEJ IC50.
Setting [5] is: Homo sapiens, read-out: alt-NHEJ IC50.
The mark [6] stands for this setting: female, athymic nude, mouse, in vivo, po, 30 mg/kg.
Setting [7] is: oral 30 mg/kg, female athymic nude mice.
[8] abbreviates: figures, read-out: CT IC50 (cytotoxicity).

Where two headings read alike, the source gives them in different places.

T1 sequence (P10635 whole entry): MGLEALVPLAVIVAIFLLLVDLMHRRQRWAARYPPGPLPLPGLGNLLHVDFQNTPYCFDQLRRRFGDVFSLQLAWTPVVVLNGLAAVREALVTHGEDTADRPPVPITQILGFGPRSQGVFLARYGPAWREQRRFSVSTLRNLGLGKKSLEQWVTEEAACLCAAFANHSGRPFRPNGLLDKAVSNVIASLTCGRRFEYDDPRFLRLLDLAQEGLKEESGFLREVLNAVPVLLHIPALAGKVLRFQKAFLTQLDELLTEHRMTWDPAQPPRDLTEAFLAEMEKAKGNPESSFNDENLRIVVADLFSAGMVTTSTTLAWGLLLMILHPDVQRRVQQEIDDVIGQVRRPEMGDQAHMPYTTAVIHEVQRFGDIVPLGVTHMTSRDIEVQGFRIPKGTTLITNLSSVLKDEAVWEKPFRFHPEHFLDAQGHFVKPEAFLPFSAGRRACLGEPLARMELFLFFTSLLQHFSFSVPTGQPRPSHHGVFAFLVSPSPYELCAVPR
T2 sequence (P08684 whole entry): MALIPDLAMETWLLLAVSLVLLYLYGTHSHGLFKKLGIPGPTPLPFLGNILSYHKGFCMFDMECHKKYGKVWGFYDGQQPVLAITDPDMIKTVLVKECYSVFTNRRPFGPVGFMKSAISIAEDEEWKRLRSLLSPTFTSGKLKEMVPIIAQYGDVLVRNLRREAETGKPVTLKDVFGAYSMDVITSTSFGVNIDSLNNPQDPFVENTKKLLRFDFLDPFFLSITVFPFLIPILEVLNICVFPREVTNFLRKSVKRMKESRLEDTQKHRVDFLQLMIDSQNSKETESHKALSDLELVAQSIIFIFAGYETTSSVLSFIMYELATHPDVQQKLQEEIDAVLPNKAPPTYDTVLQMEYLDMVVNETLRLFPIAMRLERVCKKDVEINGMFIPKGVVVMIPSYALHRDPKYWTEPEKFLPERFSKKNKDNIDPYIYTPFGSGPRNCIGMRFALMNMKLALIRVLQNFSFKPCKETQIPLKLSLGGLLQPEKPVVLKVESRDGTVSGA
T7 sequence (Q12809 whole entry): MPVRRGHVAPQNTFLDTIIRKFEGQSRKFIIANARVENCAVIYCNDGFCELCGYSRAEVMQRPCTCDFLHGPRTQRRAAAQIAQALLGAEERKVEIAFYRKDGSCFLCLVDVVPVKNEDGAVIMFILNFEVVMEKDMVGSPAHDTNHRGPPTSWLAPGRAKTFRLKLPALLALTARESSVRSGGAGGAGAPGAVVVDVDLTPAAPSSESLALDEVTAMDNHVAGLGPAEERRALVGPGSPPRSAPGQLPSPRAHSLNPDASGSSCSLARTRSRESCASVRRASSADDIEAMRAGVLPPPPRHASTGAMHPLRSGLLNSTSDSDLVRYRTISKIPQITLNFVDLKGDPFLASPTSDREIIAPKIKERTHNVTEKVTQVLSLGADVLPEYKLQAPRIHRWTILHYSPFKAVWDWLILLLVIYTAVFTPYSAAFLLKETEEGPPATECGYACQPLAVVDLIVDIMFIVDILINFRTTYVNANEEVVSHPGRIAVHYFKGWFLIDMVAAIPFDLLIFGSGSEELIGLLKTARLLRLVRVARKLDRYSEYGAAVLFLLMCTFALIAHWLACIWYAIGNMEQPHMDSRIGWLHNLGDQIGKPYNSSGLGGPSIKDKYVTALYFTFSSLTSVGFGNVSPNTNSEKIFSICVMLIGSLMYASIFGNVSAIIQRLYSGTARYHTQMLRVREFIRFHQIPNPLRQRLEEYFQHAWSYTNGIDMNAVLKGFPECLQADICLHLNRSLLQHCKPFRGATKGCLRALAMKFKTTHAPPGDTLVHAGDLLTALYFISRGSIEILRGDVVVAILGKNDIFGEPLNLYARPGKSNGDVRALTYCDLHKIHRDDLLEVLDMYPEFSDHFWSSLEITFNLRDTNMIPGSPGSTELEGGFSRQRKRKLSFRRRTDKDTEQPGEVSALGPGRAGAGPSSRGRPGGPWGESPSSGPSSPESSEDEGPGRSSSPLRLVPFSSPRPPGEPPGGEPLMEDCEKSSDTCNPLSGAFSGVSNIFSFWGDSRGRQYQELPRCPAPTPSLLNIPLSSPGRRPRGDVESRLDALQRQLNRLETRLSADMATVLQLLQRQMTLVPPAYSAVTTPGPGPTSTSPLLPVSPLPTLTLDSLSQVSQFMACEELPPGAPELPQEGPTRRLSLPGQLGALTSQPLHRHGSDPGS
T6 sequence (Q9P0X4 whole entry): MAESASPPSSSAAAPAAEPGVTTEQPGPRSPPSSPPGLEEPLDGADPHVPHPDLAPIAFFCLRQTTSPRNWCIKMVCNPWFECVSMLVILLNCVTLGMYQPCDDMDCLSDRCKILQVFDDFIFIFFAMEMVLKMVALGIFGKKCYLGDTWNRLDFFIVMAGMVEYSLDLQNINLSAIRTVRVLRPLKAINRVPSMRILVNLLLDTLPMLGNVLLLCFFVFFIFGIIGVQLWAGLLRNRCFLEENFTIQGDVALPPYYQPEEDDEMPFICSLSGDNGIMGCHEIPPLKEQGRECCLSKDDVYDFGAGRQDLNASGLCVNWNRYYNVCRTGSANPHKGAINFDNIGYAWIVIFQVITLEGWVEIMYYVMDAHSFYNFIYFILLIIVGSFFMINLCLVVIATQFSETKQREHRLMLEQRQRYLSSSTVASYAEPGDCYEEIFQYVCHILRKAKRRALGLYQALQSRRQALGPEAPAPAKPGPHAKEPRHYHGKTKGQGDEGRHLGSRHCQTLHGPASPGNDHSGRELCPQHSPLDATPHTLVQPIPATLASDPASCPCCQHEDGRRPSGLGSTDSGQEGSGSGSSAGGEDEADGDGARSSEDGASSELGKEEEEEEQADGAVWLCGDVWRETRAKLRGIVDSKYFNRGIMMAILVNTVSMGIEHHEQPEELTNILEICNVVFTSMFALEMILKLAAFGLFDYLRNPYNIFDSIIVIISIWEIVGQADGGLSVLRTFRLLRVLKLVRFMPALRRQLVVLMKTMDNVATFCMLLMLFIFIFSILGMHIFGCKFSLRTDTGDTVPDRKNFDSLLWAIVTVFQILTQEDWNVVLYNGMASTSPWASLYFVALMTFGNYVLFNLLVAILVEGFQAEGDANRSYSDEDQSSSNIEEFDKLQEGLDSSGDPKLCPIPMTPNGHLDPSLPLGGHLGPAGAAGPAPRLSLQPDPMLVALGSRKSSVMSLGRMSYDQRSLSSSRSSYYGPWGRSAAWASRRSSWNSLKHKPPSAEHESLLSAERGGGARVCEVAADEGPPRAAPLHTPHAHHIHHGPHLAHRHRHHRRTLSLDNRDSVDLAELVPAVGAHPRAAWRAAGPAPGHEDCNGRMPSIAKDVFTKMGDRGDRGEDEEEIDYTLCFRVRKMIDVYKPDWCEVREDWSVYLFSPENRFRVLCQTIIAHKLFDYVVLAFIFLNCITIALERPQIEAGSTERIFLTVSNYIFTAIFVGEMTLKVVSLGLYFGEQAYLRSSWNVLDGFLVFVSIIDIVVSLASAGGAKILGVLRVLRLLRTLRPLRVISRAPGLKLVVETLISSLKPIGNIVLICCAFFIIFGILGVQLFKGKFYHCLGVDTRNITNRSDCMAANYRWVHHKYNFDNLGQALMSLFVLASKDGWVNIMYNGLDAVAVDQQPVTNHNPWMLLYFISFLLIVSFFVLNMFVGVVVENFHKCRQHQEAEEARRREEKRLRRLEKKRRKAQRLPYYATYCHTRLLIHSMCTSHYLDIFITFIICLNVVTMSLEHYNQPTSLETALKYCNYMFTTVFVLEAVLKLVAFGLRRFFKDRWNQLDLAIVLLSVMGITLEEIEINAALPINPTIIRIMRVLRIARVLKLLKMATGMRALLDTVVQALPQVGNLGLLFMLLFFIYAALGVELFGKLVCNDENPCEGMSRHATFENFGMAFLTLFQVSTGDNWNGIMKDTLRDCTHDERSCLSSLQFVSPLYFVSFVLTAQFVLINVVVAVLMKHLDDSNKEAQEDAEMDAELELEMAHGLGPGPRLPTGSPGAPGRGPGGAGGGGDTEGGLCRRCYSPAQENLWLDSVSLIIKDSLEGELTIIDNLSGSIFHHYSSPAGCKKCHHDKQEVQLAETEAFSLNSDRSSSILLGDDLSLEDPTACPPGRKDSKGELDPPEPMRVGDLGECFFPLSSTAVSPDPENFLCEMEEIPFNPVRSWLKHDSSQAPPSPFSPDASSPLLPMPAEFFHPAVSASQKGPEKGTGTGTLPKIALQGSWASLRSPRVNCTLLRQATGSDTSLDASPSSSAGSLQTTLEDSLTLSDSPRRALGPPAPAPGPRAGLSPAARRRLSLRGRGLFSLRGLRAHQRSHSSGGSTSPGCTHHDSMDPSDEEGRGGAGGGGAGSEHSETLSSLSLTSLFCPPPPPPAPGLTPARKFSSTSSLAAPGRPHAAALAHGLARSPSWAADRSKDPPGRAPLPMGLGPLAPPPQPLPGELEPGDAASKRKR
Protocol for EJ-DR U2OS cells: as §4, §5, §6
Protocol for L type Cav 1.2: (§7) Calcium channel blocking studies were performed by Charles River Laboratories in Chinese Hamster Ovary (CHO) and HEK293 cell lines stably expressing L-Type and T-type calcium channels, respectively, under tetracycline induction in accordance with a previously published study [46]. Data acquisition and analysis was performed using the IonWorks Quattro™ or Barracuda system software (Molecular Devices Corporation).
Protocol for T type Cav 3.1: as §7
Protocol for T type Cav 3.2: as §7
Protocol for T type Cav 3.3: as §7
Description for alt-NHEJ: The EJ-DR system was made in the U2OS cell line, which provides a simultaneous read-out of alt-NHEJ and HR activity in cells in response to induced DSBs. The cell line consists of a repair template and a reporter vector. When both these elements are chromosomally integrated, cleavage of a restriction enzyme site in the repair template, induced by ligand addition, causes a DSB. Depending on which DSB repair pathway is utilized, cells either express GFP if HR is used to repair the break site using the downstream homology template near the restriction enzyme site, or RFP if alt-NHEJ is involved in ligation of the cut ends.
An overview of the workflow of this assay is presented in Figure 1A, which starts with the addition of the test compounds and DSB ligands, followed by a media wash 24 hours later to terminate DSB induction, and then live cell imaging 96 hours later. After live cell imaging, we quantify the individual intensities of GFP and RFP signal in cells using the IN Cell imager. We then use the intensity measurements of individual cells in each channel and plot these intensities as a histogram to threshold out baseline levels of GFP and RFP intensity in the absence of ligands (Figure 1B and 1C). After applying the threshold, the percent of GFP and RFP-positive cells is calculated as a readout of induction of HR and alt-NHEJ activity, respectively.
In addition to quantifying HR and alt-NHEJ activities, cytotoxicity in the absence of DSB ligands (CT) was also evaluated by quantifying the number of Hoeschst 33342-stained cells, allowing us to better understand the margin between on-target and presumable off-target, DNA repair-independent effects. IC50 values of HR inhibition, alt-NHEJ inhibition, and CT were used to calculate the “selectivity index” (SI) (defined as the ratio of CT IC50/alt-NHEJ IC50) and alt-NHEJ selectivity defined as HR IC50/alt-NHEJ IC50.
The EJ-DR cell line was created in the U2OS cells (a human osteosarcoma cell line), and contained a stably integrated EJ-RFP plasmid to measure alt-NHEJ repair and a DR-GFP plasmid to measure HR repair, and has been previously described [9]. The EJ-DR cell line was cultured in high glucose Dulbecco’s modified Eagle’s medium (DMEM; Thermo Fisher Scientific) with L-glutamine containing 10% tetracycline-free (tet-free) fetal bovine serum (FBS; Takara Bio Inc. and Atlanta Biologics) and 1% Penicillin Streptomycin (Thermo Fisher Scientific). Tet-free FBS was used to prevent any expression of the tetracycline-inducible EJ-RFP system from residual tetracycline found in most commercially available FBS. All cells were maintained at 37°C with 5% CO2.
The EJ-DR cells were plated in 384-well imaging plates at 2500 cells/well. 24 hours later, the DSB ligands, Triamcinolone Acetonide (TA; Sigma-Aldrich Co., LLC) and Shield-1 (Takara Bio Inc.), responsible for inducing the DSBs, were added for a final concentration of 100 nM TA and 1 μM Shield-1. Test compounds were also added at the same time using Echo 550 Acoustic Dispenser (Labcyte). A separate plate was seeded to test for cytotoxicity of the test compounds in the absence of the DSB ligands. […] The DSB ligands were washed out 24 hours after addition. 96 hours after addition of the ligands and test compounds, the media was washed off and cells were incubated with Hoechst nuclear stain in Live Cell Imaging Solution (Thermo Fisher Scientific). Plates were rinsed and prepared for immediate live cell imaging using GE IN Cell 2200 (Cytiva Life Sciences).

The IC50 is the point on the concentration scale where inhibition reaches its midpoint. In the case of `O=C(NC(CCN1CC(Oc2nccc3ccccc23)CC1CO)c1ccc(F)cc1)C1CCC(F)(F)CC1` (stereo not shown) [YU253106], the IC50 turned out to be 1400 nM in the data set on alt-NHEJ (setting [4]), 2300 nM on CYP2D6 and 14.5 µM against CYP3A4. Also, the results for the selectivity ratio on CYP2D6 and at CYP3A4 (ratio) were 1.64 and 10.3, respectively.

As for `CC(C)NC[C@@H](C(=O)N1CCN(c2ncnc3c2[C@H](C)C[C@H]3O)CC1)c1ccc(Cl)cc1` [GDC-0068], the IC50 in the data set on EJ-DR U2OS cells (Homo sapiens, U2OS) is 41500 ± 3320 nM; in the data set on alt-NHEJ (setting [5]) it was 9400 ± 1780 nM; in the data set on HR (Homo sapiens), 22100 ± 1840 nM. In the data set on alt-NHEJ, the “Selectivity Index (HR IC50/alt-NHEJ IC50)” value is given as 2.35.

As a reminder, the half-life is the time in which the quantity being followed falls by half. Low readings indicate rapid decline, high ones slow decline. `CC(C)C(C(=O)NCCCN1CC=C(c2ccc(Cl)cc2)CC1)c1ccc(F)cc1` (stereo not shown) [YU252386]: in data set [1] (Table 1, read-out: Cytotoxicity IC50), the IC50 at 96 h is 17.9 µM. The IC50 was 1060 nM in the data set on alt-NHEJ (setting [4]); 1100 nM in the data set on alt-NHEJ (Homo sapiens, read-out: nc-EJ IC50); 900 nM on T type Cav 3.2; greater than 60000 nM in the data set with HR (Homo sapiens); 5.6 µM at L type Cav 1.2; 870 nM against CYP2D6. Besides, the IC50 at T type Cav 3.1 worked out at 900 nM; at T type Cav 3.3, 1100 nM; at CYP3A4, 17.9 µM. Moreover, the half-life is roughly 150 min in data set [2] (setting [6]) and 241 min in data set [3] (setting [6]). Moreover, the “brain concentration relative to the alt-NHEJ IC50” value in data set [2] (setting [7]) is reported as ~ 3 fold. The “brain exposure compared to mibefradil” value in data set [2] (setting [7]) is reported as ~ 8 fold. Moreover, the “percent coverage of the in vitro alt-NHEJ IC50 at the Cmax in the brain” value in data set [2] (setting [7]) is given as 300%. Further, the “% AUC Extrapolation” value in data set [3] (setting [7]) is on record as 7.5%. Also, in data set [3] (setting [7]), the “AUC(0-x)/Dose” value came to 45.0 ng·h/mL/mg/kg. Further, the Cmax/Dose in data set [3] (setting [7]) is 11.3 ng/mL/mg/kg. For the same compound, the “Time at which Cmax was observed (tmax)” value in data set [3] (setting [7]) was 1.0 h. In data set [3] (setting [7]), the “plasma concentration compared with mibefradil” value is given as ~ 0.3 fold. Moreover, the “Area under concentration vs time curve (AUC) (0-x)” value in data set [3] (oral 30 mg/kg, female athymic nude mice, YU252222 given as methyl ester prodrug) was determined as 1350 ng·h/mL. Besides, the results for the selectivity ratio on CYP2D6 and at CYP3A4 (ratio) were 0.82 and 16.9, respectively. Also, the “SICYP 3A4 (selectivity index of CYP, CYP3A4 IC50 to alt-NHEJ IC50), called fold decrease in CYP3A4 inhibition” value on CYP3A4 (ratio) was ~ 17.

On to `COc1ccc(-c2ccc3c(N4CCOC[C@@H]4C)nc(N4CCOC[C@@H]4C)nc3n2)cc1CO` [AZD 8055], for which the IC50 in the data set with EJ-DR U2OS cells (Homo sapiens, U2OS) came out at 890 ± 280 nM; in the data set with alt-NHEJ (setting [5]), 50 ± 10 nM; in the data set on HR (Homo sapiens), 2850 ± 1040 nM. Further, the “Selectivity Index (HR IC50/alt-NHEJ IC50)” value in the data set on alt-NHEJ was 57.00.

With `CO[C@H]1C[C@@H]2CC[C@@H](C)[C@@](O)(O2)C(=O)C(=O)N2CCCC[C@H]2C(=O)O[C@H]([C@H](C)C[C@@H]2CC[C@@H](OCCO)[C@H](OC)C2)CC(=O)[C@H](C)/C=C(\C)[C@@H](O)[C@@H](OC)C(=O)[C@H](C)C[C@H](C)/C=C/C=C/C=C/1C` [Everolimus], the IC50 in the data set on EJ-DR U2OS cells (Homo sapiens, U2OS) is 3170 ± 2050 nM; with alt-NHEJ (setting [5]) it was 50 ± 30 nM; in the data set with HR (Homo sapiens), 70 ± 30 nM. Moreover, the “Selectivity Index (HR IC50/alt-NHEJ IC50)” value in the data set with alt-NHEJ is reported as 1.40.

As for `CC(C)[C@H]1c2ccc(F)cc2CC[C@]1(O)CCN1C[C@H](Oc2nccc3ccccc23)C[C@H]1CO` [YU252223], the IC50 in the data set on alt-NHEJ (setting [4]) is 1640 nM; against Human hERG (Kv11.1) (patch clamp, CHO-K1 cells), 6.8 µM. Also, the “SIhERG (hERG IC50/alt-NHEJ IC50), called fold reduction in hERG potency” value at Human hERG (Kv11.1) (ratio) stood at 4.14.

Take `CC(C)[C@H]1c2ccc(F)cc2CC[C@]1(O)CC(=O)N(C)CCCc1nc2ccccc2[nH]1` [YU241551]: the IC50 at 96 h in [1] (setting [8]) is greater than 60 µM. Further, the IC50 with alt-NHEJ (setting [4]) was greater than 60000 nM. Moreover, in the data set on alt-NHEJ, the “selectivity index SI (CT IC50/alt-NHEJ IC50)” value was greater than 1.

Turning to `O=c1cc(N2CCOCC2)oc2c(-c3cccc4c3sc3ccccc34)cccc12` [NU 4771], the “effect on alt-NHEJ and HR in the EJ-DR assay” value in the data set on alt-NHEJ (EJ-DR U2OS cells) is “increase in both alt-NHEJ and HR”.

In the case of `CC(=O)c1c(C)c2cnc(Nc3ccc(N4CCNCC4)cn3)nc2n(C2CCCC2)c1=O` [Pablociclib], the IC50 in the data set with EJ-DR U2OS cells was determined as 1370 ± 360 nM; in the data set on alt-NHEJ (read-out: alt-NHEJ IC50, EJ-DR assay, Supplementary Table 2, mean ± SEM of four technical replicates) it was 40 ± 10 nM; in the data set on HR (EJ-DR assay, Supplementary Table 2, mean ± SEM of four technical replicates), 60 ± 10 nM. Also, in the data set with alt-NHEJ, the “Selectivity Index (HR IC50/alt-NHEJ IC50)” value was determined as 1.50.

As for `CC(C)C1c2ccccc2CCN1C(=O)CC1CCN(C(=O)OC(C)(C)C)CC1` (stereo not shown) [YU241542], the IC50 at 96 h in data set [1] (setting [8]) is greater than 60 µM. For the same compound, the IC50 with alt-NHEJ (setting [4]) came to 41300 nM. Moreover, in the data set with alt-NHEJ, the “selectivity index SI (CT IC50/alt-NHEJ IC50)” value was greater than 1.45.

These data come from paper PMC8092340 (Oncotarget, 2021).
